Assay results from PMC4841536, “Characterization of the Anti-HCV Activities of the New Cyclophilin Inhibitor STG-175” (PLoS ONE, 2016).

Key:
[1] = alamarBlue cytotoxicity (CC50), GT4a replicon cell line; settings: human
Description: The anti-HCV activity of STG-175 was conducted using a panel of luciferase reporter replicon cell lines including GT1a, GT1b, GT2a, GT3a and GT4a as we described previously. The GT1a subgenomic renilla luciferase reporter replicon H77 RLucP (7) was supplied by Dr. Delaney. The GT1b subgenomic firefly luciferase reporter replicon pFK-I389/NS3-3’ [29] was supplied by Dr. Bartenschlager. The GT1B subgenomic NS3, NS5A and NS5B mutants were created via homologous recombination using the In-Fusion HD Cloning kit (Clontech) as we described previously. The GT2a genomic luciferase reporter replicon Luc-Neo-JFH-1 was generated as previously. The plasmid pFK-Luc-JFH1 was supplied from Drs. […] The CellTiter-Fluor™ Cell Viability Assay is a non-lytic fluorescence assay, which measures the number of live cells. […] Luciferase activity was determined using the Luciferase Assay System (Promega) in a Berthold luminometer. […] Viable cells continuously convert resazurin to resorufin, increasing the overall fluorescence and color of the media surrounding cells.
Fig 2 Anti-HCV activities of STG-175 among GTs. […] Luciferase activity was determined using the Luciferase Assay System in a Berthold luminometer. […] Data are expressed as mean of relative light units and calculated EC50s are presented. […]

[2] = system: HIV-1 (JR-CSF) in activated PBMCs; assay: Mono-infection, HIV-1 capsid/p24 ELISA; type: cell-based; settings: added together with virus, 12 days
Excerpt: (§1) For mono-infections: a) human hepatoma Huh7.5.1 cells were infected with HCV (JFH-1) and viral replication was quantified by HCV core ELISA (Ortho HCV antigen ELISA kit; Ortho Clinical Diagnostics, Waco Chemicals, Inc. or HCV Core ELISA, XpressBio); b) sodium-taurocholate co-transporting polypeptide (NTCP)-positive Huh7 cells were infected with hepatitis B virus (HBV) AD38 (produced from HepAD38 cells) and viral replication was quantified by HBV HBeAg ELISA; and c) human (peripheral blood monocytic cells (PBMCs) were infected with HIV-1 (JR-CSF) and viral replication was quantified by HIV-1 capsid/p24 ELISA. PBMCs were isolated as described previously. The Scripps Research Institute Normal Blood Donor Service (TSRI NBDS) provides TSRI investigators who have Human Subjects Committee-approved protocols with a source of normal blood for their research. Donors are assured of a controlled clinical setting for their blood to be drawn by licensed phlebotomists, and investigators are assured that the donors whose specimens they obtain through the service have been screened upon entry into the program and annually thereafter for a CBC, Hepatitis B and C and HIV-1. Hemoglobin determinations at every donation protect the donor from phlebotomy-induced anemia. […]

[3] = system: HBV AD38 in NTCP-Huh7 cells; assay: Mono-infection, HBV HBeAg ELISA; type: cell-based, hepatitis B virus; settings: 0.5 and 5 μM, added together with virus, 12 days
Excerpt: as §1

CC=CCC(C)C(O)C1C(=O)NC(CC)C(=O)N(C)C(CSCCCCO)C(=O)N(C)C(CC(C)(C)O)C(=O)NC(C(C)C)C(=O)N(C)C(CC(C)C)C(=O)NC(C)C(=O)NC(C)C(=O)N(C)C(CC(C)C)C(=O)N(C)C(CC(C)C)C(=O)N(C)C(C(C)C)C(=O)N1C (stereo not shown) [STG-175]
CC50 at 72 h [1]: > 10 µM | HIV-1 infection (HIV-1 capsid ELISA) ([2]; 0.5 μM): significantly decreased infection | HIV-1 infection (HIV-1 capsid ELISA) ([2]; 5 μM): fully blocked | HBV infection (HBeAg ELISA) [3]: significantly reduced
